Data reported in patent US20260183277A1, “ANTIVIRAL PHARMACEUTICAL COMPOSITION COMPRISING ERRy INHIBITOR AS ACTIVE INGREDIENT” (priority 2024, published 2026).

Test system: SARS-CoV-2 KCDC03
Format: cell-based

CC(C)N1CCN(c2ccc(/C(=C(/CCCO)c3ccccc3)c3ccc(O)cc3)cc2)CC1 [DN200434]
genome replication, progeny production, and protein synthesis of SARS-CoV-2: effectively suppressed
